Assay results reported in ChEMBL document CHEMBL1201861, “Genomics of Drug Sensitity in Cancer screening data, Wellcome Trust Sanger Institute”.

Experiments:
Test in all cases: cells
Assay type in all cases: functional, cell-based, Homo sapiens
[1] = system: BHT-101; settings: Homo sapiens, BHT-101
Description: SANGER: Inhibition of human BHT-101 cell growth in a cell viability assay.

[2] = system: D-336MG; settings: Homo sapiens, D-336MG
Description: SANGER: Inhibition of human D-336MG cell growth in a cell viability assay.

[3] = system: GR-ST; settings: Homo sapiens, GR-ST
Description: SANGER: Inhibition of human GR-ST cell growth in a cell viability assay.

[4] = system: HCC1937; settings: Homo sapiens, HCC1937;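 further: growth inhibition measured with a cell viability read-out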
Description: SANGER: Inhibition of human HCC1937 cell growth in a cell viability assay.

[5] = system: K562; settings: Homo sapiens, K562
Description: SANGER: Inhibition of human K-562 cell growth in a cell viability assay.

[6] = system: KLE; settings: Homo sapiens, KLE;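 further: growth inhibition of human KLE cells, read out with a cell viability assay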
Description: SANGER: Inhibition of human KLE cell growth in a cell viability assay.

[7] = system: KYSE-510; settings: Homo sapiens, KYSE-510;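 further: cell viability readout used to measure how strongly growth of the cell line is suppressed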
Description: SANGER: Inhibition of human KYSE-510 cell growth in a cell viability assay.

[8] = system: LU-139; settings: Homo sapiens, LU-139
Description: SANGER: Inhibition of human LU-139 cell growth in a cell viability assay.

[9] = system: LXF-289 cell line; settings: Homo sapiens, LXF-289
Description: SANGER: Inhibition of human LXF-289 cell growth in a cell viability assay.

[10] = system: SNU-C2B; settings: Homo sapiens, SNU-C2B;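 further: cell viability readout used to measure compound-driven suppression of SNU-C2B cell proliferation, IC50 marking half-maximal growth inhibition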
Description: SANGER: Inhibition of human SNU-C2B cell growth in a cell viability assay.

[11] = system: SW900; settings: Homo sapiens, SW900;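 further: IC50 is the concentration that inhibits SW900 cell growth, measured by a cell viability assay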
Description: SANGER: Inhibition of human SW900 cell growth in a cell viability assay.

[12] = system: A388; settings: Homo sapiens, A388;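 further: growth inhibition of human A388 cells, read out with a cell viability assay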
Description: SANGER: Inhibition of human A388 cell growth in a cell viability assay.

[13] = system: C8166; settings: Homo sapiens, C8166;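 further: growth inhibition of human C8166 cells measured by a cell viability assay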
Description: SANGER: Inhibition of human C8166 cell growth in a cell viability assay.

[14] = system: CAL-12T; settings: Homo sapiens, CAL-12T;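 further: growth inhibition of human CAL-12T cells, read out with a cell viability assay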
Description: SANGER: Inhibition of human CAL-12T cell growth in a cell viability assay.

[15] = system: VMRC-RCZ; settings: Homo sapiens, VMRC-RCZ;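 further: growth inhibition measured with a cell viability assay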
Description: SANGER: Inhibition of human VMRC-RCZ cell growth in a cell viability assay.

Q: How did the IC50 [1] turn out when CCc1cncnc1N1CCN(Cc2nc3cc(C(F)(F)F)ccc3[nH]2)CC1 was run?
A: 820 nM

Q: Which results are given for COc1cc2ncnc(Nc3ccc(F)c(Cl)c3)c2cc1OCCCN1CCOCC1 [GEFITINIB]?
A: IC50 [2]: > 500 nM; IC50 [3]: > 500 nM; IC50 [4]: > 500 nM; IC50 [5]: > 500 nM; IC50 [6]: > 500 nM; IC50 [7]: > 500 nM; IC50 [8]: > 500 nM; IC50 [9]: > 500 nM; IC50 [10]: > 500 nM; IC50 [11]: > 500 nM; IC50 [12]: > 500 nM; IC50 [13]: > 500 nM; IC50 [14]: > 500 nM; IC50 [15]: > 500 nM
